“And” between values parts separate entries of the source, which are not always exact repeats. Identical values can stand only once.
Test system: 855422-203-R-J1-PDC complex spheroids, viability
Experiment: Anticancer human tumor 855422-203-R-J1-PDC patient-derived bladder carcinoma cell line growth inhibition [CLK]
Conditions: for viability, T/C: stronger effect = lower value
Method in brief: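 Multi-cell-type spheroids combined patient-derived tumor cells with HUVEC endothelial cells and human mesenchymal stem cells. Paired agents were dosed in half-log steps down from about clinical Cmax, or from 10 microM where Cmax was unknown.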

[1] = curve of first compound, second compound 0.0316 µM
[2] = curve of first compound, second compound 0.1 µM
[3] = curve of first compound, second compound 0.316 µM
[4] = curve of first compound, second compound 1 µM
[5] = curve of first compound, second compound 3.16 µM
[6] = curve of first compound, second compound 10 µM
[7] = second compound 0.0316 µM, first compound 0.0316 µM
[8] = second compound 0.0316 µM, first compound 0.1 µM
[9] = second compound 0.0316 µM, first compound 0.316 µM
[10] = second compound 0.0316 µM, first compound 1 µM
[11] = second compound 0.0316 µM, first compound 3.16 µM
[12] = second compound 0.0316 µM, first compound 10 µM
[13] = second compound 0.1 µM, first compound 0.0316 µM
[14] = second compound 0.1 µM, first compound 0.1 µM
[15] = second compound 0.1 µM, first compound 0.316 µM
[16] = second compound 0.1 µM, first compound 1 µM
[17] = second compound 0.1 µM, first compound 3.16 µM
[18] = second compound 0.1 µM, first compound 10 µM
[19] = second compound 0.316 µM, first compound 0.0316 µM
[20] = second compound 0.316 µM, first compound 0.1 µM
[21] = second compound 0.316 µM, first compound 0.316 µM
[22] = second compound 0.316 µM, first compound 1 µM
[23] = second compound 0.316 µM, first compound 3.16 µM
[24] = second compound 0.316 µM, first compound 10 µM
[25] = second compound 1 µM, first compound 0.0316 µM
[26] = second compound 1 µM, first compound 0.1 µM
[27] = second compound 1 µM, first compound 0.316 µM
[28] = second compound 1 µM, first compound 1 µM
[29] = second compound 1 µM, first compound 3.16 µM
[30] = second compound 1 µM, first compound 10 µM
[31] = second compound 3.16 µM, first compound 0.0316 µM
[32] = second compound 3.16 µM, first compound 0.1 µM
[33] = second compound 3.16 µM, first compound 0.316 µM
[34] = second compound 3.16 µM, first compound 1 µM
[35] = second compound 3.16 µM, first compound 3.16 µM
[36] = second compound 3.16 µM, first compound 10 µM
[37] = second compound 10 µM, first compound 0.0316 µM
[38] = second compound 10 µM, first compound 0.1 µM
[39] = second compound 10 µM, first compound 0.316 µM
[40] = second compound 10 µM, first compound 1 µM
[41] = second compound 10 µM, first compound 3.16 µM
[42] = second compound 10 µM, first compound 10 µM
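Further: spheroids exposed to drugs for seven days before readout.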
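Wherever viability, T/C is given: 100% = DMSO vehicle control wells.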

SMILES: Nc1ccccc1NC(=O)c1ccc(CNC(=O)OCc2cccnc2)cc1 + CN1CCN(c2cc(C(=O)Nc3cc4cc(-c5cnn(C)c5)ccc4cn3)ccn2)CC1
- IC50 [1]: 846 nM
- IC50 [2]: 486 nM
- IC50 [3]: < 31.6 nM
- IC50 [4]: < 31.6 nM
- IC50 [5]: < 31.6 nM
- IC50 [6]: < 31.6 nM
- viability, T/C [7]: 87%
- viability, T/C [8]: 72.8%
- viability, T/C [9]: 68.8%
- viability, T/C [10]: 49%
- viability, T/C [11]: 19.2%
- viability, T/C [12]: 0.56%
- viability, T/C [13]: 65.2%
- viability, T/C [14]: 75.4%
- viability, T/C [15]: 58.4%
- viability, T/C [16]: 33%
- viability, T/C [17]: 10.7%
- viability, T/C [18]: 0.05%
- viability, T/C [19]: 5.43%
- viability, T/C [20]: 5.82%
- viability, T/C [21]: 9.34%
- viability, T/C [22]: 3.91%
- viability, T/C [23]: 0.28%
- viability, T/C [24]: 0.06%
- viability, T/C [25]: 0.15%
- viability, T/C [26]: 0.19%
- viability, T/C [27]: 0.13%
- viability, T/C [28]: 0.09%
- viability, T/C [29]: 0.12%
- viability, T/C [30]: 0.09%
- viability, T/C [31]: 0.53%
- viability, T/C [32]: 1.31%
- viability, T/C [33]: 0.28%
- viability, T/C [34]: 0.49%
- viability, T/C [35]: 0.96%
- viability, T/C [36]: 0.28%
- viability, T/C [37]: 0.2%
- viability, T/C [38]: 0.34%
- viability, T/C [39]: 0.42%
- viability, T/C [40]: 0.36%
- viability, T/C [41]: 0.31%
- viability, T/C [42]: 0.24%

SMILES: CC(=O)O[C@H]1C(=O)[C@@]2(C)[C@H]([C@H](OC(=O)c3ccccc3)[C@]3(O)C[C@H](OC(=O)[C@H](O)[C@@H](NC(=O)c4ccccc4)c4ccccc4)C(C)=C1C3(C)C)[C@]1(OC(C)=O)CO[C@@H]1C[C@@H]2O + CN1CCN(c2cc(C(=O)Nc3cc4cc(-c5cnn(C)c5)ccc4cn3)ccn2)CC1
- IC50 [1]: < 31.6 nM
- IC50 [2]: < 31.6 nM
- IC50 [3]: < 31.6 nM
- IC50 [4]: < 31.6 nM
- IC50 [5]: < 31.6 nM
- IC50 [6]: < 31.6 nM
- viability, T/C [7]: 8.75%
- viability, T/C [8]: 7.02%
- viability, T/C [9]: 5.26%
- viability, T/C [10]: 9.34%
- viability, T/C [11]: 9.46%
- viability, T/C [12]: 10.8%
- viability, T/C [13]: 8.5%
- viability, T/C [14]: 7.8%
- viability, T/C [15]: 6.23%
- viability, T/C [16]: 6.41%
- viability, T/C [17]: 8.14%
- viability, T/C [18]: 8.37%
- viability, T/C [19]: 4.94%
- viability, T/C [20]: 5.41%
- viability, T/C [21]: 5.22%
- viability, T/C [22]: 4.69%
- viability, T/C [23]: 4.5%
- viability, T/C [24]: 5.61%
- viability, T/C [25]: 0.21%
- viability, T/C [26]: 0.19%
- viability, T/C [27]: 0.18%
- viability, T/C [28]: 1.39%
- viability, T/C [29]: 1.11%
- viability, T/C [30]: 0.14%
- viability, T/C [31]: 0.45%
- viability, T/C [32]: 0.41%
- viability, T/C [33]: 0.38%
- viability, T/C [34]: 0.39%
- viability, T/C [35]: 0.32%
- viability, T/C [36]: 0.37%
- viability, T/C [37]: 1.12%
- viability, T/C [38]: 0.73%
- viability, T/C [39]: 0.33%
- viability, T/C [40]: 1.28%
- viability, T/C [41]: 0.43%
- viability, T/C [42]: 2.45%

SMILES: Nc1ccn(C2OC(CO)C(O)C2(F)F)c(=O)n1 (stereo not drawn)
- viability, T/C (compound 0.0316 µM): 26.9% and 25.7%
- viability, T/C (compound 0.1 µM): 16.5% and 10.8%
- viability, T/C (compound 0.316 µM): 17.8% and 15.2%
- viability, T/C (compound 1 µM): 15.7% and 11.5%
- viability, T/C (compound 3.16 µM): 11.1% and 9.45%
- viability, T/C (compound 10 µM): 7.67% and 6.64%
- IC50 (curve of compound): < 31.6 nM

SMILES: C=CC(=O)Nc1cc(Nc2nccc(-c3cn(C)c4ccccc34)n2)c(OC)cc1N(C)CCN(C)C
- viability, T/C (compound 0.000949 µM): 112% and 158%
- viability, T/C (compound 0.003 µM): 91.3% and 98.2%
- viability, T/C (compound 0.00949 µM): 107% and 117%
- viability, T/C (compound 0.03 µM): 99.9% and 90.9%
- viability, T/C (compound 0.0949 µM): 108% and 118%
- viability, T/C (compound 0.3 µM): 101% and 98.4%
- IC50 (curve of compound): > 300 nM
